{"source": "paper PMC7814697", "about": "(The Journal of organic chemistry, 2019)", "key": {"[1]": {"tested_on": "Bacillus subtilis ATCC 6051", "test": "Minimum inhibitory concentration", "format": "cell-based", "settings": "ATCC6051, read-out: MIC, Bacillus subtilis ATCC 6051"}, "[2]": {"tested_on": "Gram-positive bacteria (S. aureus, S. epidermidis, and B. subtilis)", "test": "MIC assays summarised across the Gram-positive bacteria", "format": "cell-based", "settings": "MIC without versus with 0.002% polysorbate 80"}}, "data": [{"smiles": "CN[C@H](CC(C)C)C(=O)N[C@H]1C(=O)N[C@@H](CC(N)=O)C(=O)N[C@H]2C(=O)N[C@H]3C(=O)N[C@H](C(=O)N[C@H](C(=O)O)c4cc(O)cc(O)c4-c4cc3ccc4O)[C@H](O)c3ccc(c(Cl)c3)Oc3cc2cc(c3O[C@@H]2O[C@H](CO)[C@@H](O)[C@H](O)[C@H]2O[C@H]2C[C@](C)(N)[C@H](O)[C@H](C)O2)Oc2ccc(cc2Cl)[C@H]1O", "note": "[vancomycin]", "values": [{"measurement": "MIC", "setting": "[1]", "result": 0.5, "unit": "µg/mL"}, {"measurement": "decrease in the MIC with 0.002% polysorbate 80", "setting": "[2]", "result": "modest two-fold decrease"}]}]}
